Measured values from US10285972B2, “Trans-2-nonadecyl-4-hydroxymethyl-1,3-dioxolane and producing methodthereof” (Greenyn Biotechnology Co., Ltd, priority 2014, dated 2019).

How the values were obtained:
[1] = Body weight and food intake of mice fed 45% high-fat diet for 8 weeks; assay type: in vivo, C57BL/6 mice; details: for Final wight: mean±SE
Experimental: (§1) The 4 weeks-old male C57BL/6 mice were divided into 5 groups and treated with different feeding conditions, wherein the group 1 was the blank control fed with normal diet and water, the group 2 was fed with 45% high-fat diet and water, the group 3 was fed with 45% high-fat diet, water and 10 mg/Kg the compound TNHD, the group 4 was fed with 45% high-fat diet, water and 20 mg/Kg the compound TNHD, and the group 5 was fed with 45% high-fat diet, water and 200 mg/Kg Silymarin. Feeding for 8 weeks, and then all the mice were sacrificed.
At the end of the experiment, taking photographs of the each group were shown as FIG. 4.
The body weight and food intake in the each group were recorded in the table 1, wherein the data is expressed as the mean±SE.

[2] = system: liver; assay: Organ weights, liver appearance and liver staining (H&E, Surius red) of mice fed 45% high-fat diet; assay type: in vivo, C57BL/6 mice; details: for Liver weight: 8 weeks
Experimental: as §1
The weights of liver, kidney and spleen of the mice in the each group were measured and recorded in table 2. The macroscopic appearance of the liver from the mice of the each group was shown as FIG. 6. Furthermore, the liver collected from the sacrificed mice in each groups was fixed with formalin. After the fixation, the liver tissue of the each group was paraffin-embedded for histology section and stained by H&E and Surius red for analysis.

[3] = system: fatty liver and obesity animal model prepared by ethanol-containing diet (Lieber-DeCarli); assay: Fatty liver and obesity animal model prepared by ethanol-containing diet (Lieber-DeCarli); assay type: in vivo; details: FIGS. 9 to 14

CCCCCCCCCCCCCCCCCCC[C@@H]1OC[C@@H](CO)O1 (relative stereo) [TNHD, trans-2-nonadecyl-4-hydroxymethyl-1,3-dioxolane]
Effect on body weight, high dose compared with low dose ([1]; 45% high-fat diet mice, 20 mg/Kg vs 10 mg/Kg): high dose is more effective
Effect on body weight increase of obesity mouse ([1]; 45% high-fat diet mice, 10 or 20 mg/Kg, 8 weeks): prevent and inhibit the body weight of obesity mouse to increase
Effect on weight loss compared with Silymarin ([1]; 45% high-fat diet mice, Silymarin 200 mg/Kg): more effective to weight loss than Silymarin
Final wight ([1]; group 3: 45% high-fat diet + 10 mg/Kg TNHD, 8 weeks): 29.8 ± 2.0 g
Final wight ([1]; group 4: 45% high-fat diet + 20 mg/Kg TNHD, 8 weeks): 28.1 ± 1.6 g
Lipid accumulation in the liver (H&E and Surius red staining) ([2]; 45% high-fat diet mice, FIGS. 7 and 8): inhibit the lipid accumulation in the liver effectively
Liver weight ([2]; group 3: 45% high-fat diet + 10 mg/Kg TNHD): 5.23 ± 0.84 g
Macroscopic appearance of the liver ([2]; group 3 or group 4 (10 or 20 mg/Kg), 45% high-fat diet, FIG. 6): the liver shows the red color and has smooth surface
Liver weight ([2]; group 4: 45% high-fat diet + 20 mg/Kg TNHD): 5.63 ± 0.61 g
Effect on obesity, fatty liver or liver damage caused by alcohol [3]: effective to treat or/and prevent obesity, fatty liver or liver damage caused by alcohol
